Assay results from patent publication US7713967B2, “Therapeutic substituted hydantoins, and related compounds” (Allergan, Inc., priority 2008, dated 2010).

Test system: lashes and adjacent hairs
Assay: Clinical observation of lashes and adjacent hairs in glaucoma patients treated in one eye
Assay type: in vivo
Source text: In the course of treating patients having glaucoma, treatment may only be appropriate in one eye. […] The lash appearance on the lids of the treated eyes would have appeared quite attractive if it represented a bilateral phenomenon. As a result of its asymmetric nature, the long lashes on one side could be construed as disturbing from a cosmetic standpoint. A systemic examination was preformed as a result of the asymmetric phenomenon. It soon became apparent that this altered appearance was not an isolated finding. […] Definite differences could be identified to varying degrees in the lashes and adjacent hairs of all patients who were taking the drug on a unilateral basis for longer than 6 months.
The changes in the lashes were apparent on gross inspection in several patients once attention was focused on the issue. In those with light colored hair and lashes, the differences were only seen easily with the aid of the high magnification and lighting capabilities of the slit lamp biomicroscope. In the course of glaucoma follow-up examination, attention is generally immediately focused on the eye itself. As a result of the high power magnification needed only one eye is seen at a time and the eye is seen at a high enough power that the lashes are not in focus. […]

Which results are given for CCNC(=O)CCC/C=C\C[C@@H]1[C@@H](/C=C/[C@@H](O)CCc2ccccc2)[C@H](O)C[C@@H]1O [bimatoprost]?
lash appearance in the treated eye versus the non-treated eye (glaucoma patient treated in one eye only): longer, thicker, and fuller; hair growth in treated versus control areas (multiple parameters of hair appearance, many subjects): stimulated
